Laboratory results from patent US8669072B2, “Oxadiazoline ligands for modulating the expression of exogenous genes via an ecdysone receptor complex” (Intrexon Corporation, priority 2003, dated 2014).
Read-outs that look alike come from different tables or passages of the source.

Experiments:
[1] = biological target: T1, GAL4 DBD-CfEcR(DEF)/VP16AD-MmRXRE (Choristoneura fumiferana, UniProt O77240); test: 13B3 assay: luciferase reporter gene induction in stable CHO clone 13B3; format: cell-based; settings: for Fold Induction Average, 13B3 assay: 33/33.3 μM ligand, RLU relative to DMSO; for Fold Induction Average, 13B3 assay / fold induction at 33.3 µM: 48 h; for fold induction at 33.3 µM: read-out: Fold Induction Average, 13B3 assay; for Rel Max FI, 13B3 assay: maximum fold induction relative to that of GS-E ligand
T1 construct: The wild-type D, E, and F domains from spruce budworm Choristoneura fumiferana EcR (“CfEcR-DEF”)
Procedure, shortened: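 Stable CHO clone 13B3 co-expressing GAL4 DBD-CfEcR(DEF) and VP16AD-MmRXRE with a GAL4 RE-luciferase reporter; ligands from DMSO stocks diluted 300-fold. Luciferase read by luminescence 48 h after treatment, duplicate wells averaged. Fold induction = RLU treated/RLU DMSO; EC50 from three-parameter logistic fit.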

[2] = biological target: T2, Bombyx mori EcR (VBE) (Bombyx mori, UniProt P49881); test: Z3 assay: β-galactosidase reporter gene induction in HEK-293 clone Z3 (CVBE / 6XEcRE LacZ); format: cell-based; settings: for Fold Induction Average, Z3 assay: 33 μM ligand, 48 h, RLU relative to DMSO; for fold induction at 33 µM: HEK293, 48 h, read-out: Fold Induction Average, Z3 assay; for Rel Max FI, Z3 assay: maximum fold induction relative to that of GS-E ligand
T2 construct: expressed in transfected cells; host or cells: Human HEK-293 cells, retrovirally infected, clone Z3
T2 sequence (P49881 86-606 limits assumed): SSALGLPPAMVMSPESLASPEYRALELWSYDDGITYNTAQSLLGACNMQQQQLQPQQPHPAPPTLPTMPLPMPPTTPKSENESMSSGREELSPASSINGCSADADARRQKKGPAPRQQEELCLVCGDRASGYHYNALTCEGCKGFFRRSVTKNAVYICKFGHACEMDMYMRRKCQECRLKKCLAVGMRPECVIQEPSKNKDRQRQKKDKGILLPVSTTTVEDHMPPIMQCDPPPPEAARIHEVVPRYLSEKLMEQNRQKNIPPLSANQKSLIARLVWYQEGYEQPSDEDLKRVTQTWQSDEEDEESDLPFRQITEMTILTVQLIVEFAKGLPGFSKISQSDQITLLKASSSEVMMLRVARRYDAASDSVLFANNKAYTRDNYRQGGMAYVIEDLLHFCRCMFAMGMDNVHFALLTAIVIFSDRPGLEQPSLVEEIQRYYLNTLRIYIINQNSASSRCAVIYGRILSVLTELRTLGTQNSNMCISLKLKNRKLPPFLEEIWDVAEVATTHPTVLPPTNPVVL
T2 sequence (P19793 1-462 partner): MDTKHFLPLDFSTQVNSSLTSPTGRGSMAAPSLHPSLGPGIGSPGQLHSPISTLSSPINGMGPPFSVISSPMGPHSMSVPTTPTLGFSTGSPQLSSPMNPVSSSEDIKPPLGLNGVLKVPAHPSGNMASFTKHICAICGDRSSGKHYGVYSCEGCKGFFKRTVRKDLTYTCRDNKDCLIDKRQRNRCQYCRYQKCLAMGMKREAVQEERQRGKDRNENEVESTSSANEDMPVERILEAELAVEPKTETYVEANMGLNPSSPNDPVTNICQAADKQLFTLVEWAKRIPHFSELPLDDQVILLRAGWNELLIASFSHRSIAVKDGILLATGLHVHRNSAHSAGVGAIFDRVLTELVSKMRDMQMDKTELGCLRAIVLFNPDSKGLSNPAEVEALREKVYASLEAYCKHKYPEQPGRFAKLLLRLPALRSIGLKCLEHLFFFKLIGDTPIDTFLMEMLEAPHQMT

[3] = tested on: MTA (two-spotted spider mite); test: Insect toxicity contact bioassay, MTA; format: in vivo; settings: for Insect Toxicity LC50, MTA: in vivo
Method: (§1) The compound to be evaluated was dissolved in an appropriate solvent, usually a mix of acetone, methanol, and water. Test solutions were made by serial dilution of a stock test solution with acetone, methanol, and water. Initial evaluations were made at one or more concentrations on one or more of the following insects:
(§2) Contact bioassays (green peach aphid, two-spotted spider mite, white fly) were conducted by applying a solution of the test compound to the inside surface of a Petri dish. The solution was allowed to air-dry, then each dish was infested and the larvae from each treatment were transferred to a bioassay tray. The trays were held for one to seven days, and the mortality rating was determined for each treatment.

[4] = tested on: Beet Armyworm; test: Insect toxicity feeding bioassay, BAW; format: in vivo; settings: for Insect Toxicity LC50, BAW: in vivo
Method: as §1
(§3) Feeding bioassays were conducted in bioassay trays containing insect diet. Treatments were made by applying 50 μL of test solution to the surface of the diet in each of 5 wells. After the test solution dried, each well was infested with a single neonate larva. The trays were held for six days and then the mortality rating was determined for each treatment.

[5] = tested on: Cabbage Looper; test: Insect toxicity feeding bioassay, CL; format: in vivo; settings: for Insect Toxicity LC50, CL: in vivo
Method: as §1, §3

[6] = tested on: Tobacco Budworm; test: Insect toxicity bioassay, TBW; format: in vivo; settings: for Insect Toxicity LC50, TBW: in vivo
Method: as §1, §3
Some of the tobacco budworm tests were conducted as follows. A test solution containing 600 ppm was made by dissolving a compound of the invention in a 1:1 acetone:methanol solution, then adding water to give a 5:5:90 acetone:methanol:water solution, and finally a surfactant was added at an equivalent of 7.37 g of surfactant per 100 L of test solution (1 ounce of surfactant per 100 gallons of test solution). Appropriate dilutions were prepared in water from the 600 ppm solution. A detached cotton leaf, Gossypium hirsutum was placed on moistened filter paper in a Petri dish (100×20 mms). The leaf was sprayed with the test solution using a rotating turntable sprayer and allowed to dry. The dish was infested with 10 first instar larvae of the tobacco budworm and covered with the lid. If the larvae were alive two days after treatment, fresh untreated cotton leaves were added. All treatments were maintained at 23.9-26.7° C. (75-80° F.) under fluorescent light in a well-ventilated room. Percent mortality was determined at four days after treatment.

[7] = tested on: WFN (white fly); test: Insect toxicity contact bioassay, WFN; format: in vivo; settings: for Insect Toxicity LC50, WFN: in vivo
Method: as §1, §2

[8] = biological target: CfEcR (CDEF)/CfUSP, GST fusion protein (Choristoneura fumiferana, UniProt O77240); test: CfEcR (CDEF)/CfUSP GST fusion protein assay; format: binding
[9] = biological target: T3, GAL4 DBD (1-147)-CfEcR(DEF)/VP16AD-βRXREF-LmUSPEF (Choristoneura fumiferana, UniProt O77240); test: cell-based; settings: for fold induction at 33.3 µM: 48 h, read-out: Fold Induction Average, 27-63 assay; for Rel Max FI, 27-63 assay: maximum fold induction relative to that of GS-E ligand
T3 construct: The wild-type D, E, and F domains from spruce budworm Choristoneura fumiferana EcR (“CfEcR-DEF”)
Procedure, shortened: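 CHO clone stably carrying the GAL4-DBD–spruce budworm EcR(DEF) and VP16–RXR/USP chimeric receptor with a GAL4-responsive luciferase reporter; ligand added from DMSO stock diluted 300-fold.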

[10] = GST fusion protein, read-out: CfEcR EC50

CfEcR (CDEF)/CfUSP, GST fusion protein, sequence (O77240 entry or part of it): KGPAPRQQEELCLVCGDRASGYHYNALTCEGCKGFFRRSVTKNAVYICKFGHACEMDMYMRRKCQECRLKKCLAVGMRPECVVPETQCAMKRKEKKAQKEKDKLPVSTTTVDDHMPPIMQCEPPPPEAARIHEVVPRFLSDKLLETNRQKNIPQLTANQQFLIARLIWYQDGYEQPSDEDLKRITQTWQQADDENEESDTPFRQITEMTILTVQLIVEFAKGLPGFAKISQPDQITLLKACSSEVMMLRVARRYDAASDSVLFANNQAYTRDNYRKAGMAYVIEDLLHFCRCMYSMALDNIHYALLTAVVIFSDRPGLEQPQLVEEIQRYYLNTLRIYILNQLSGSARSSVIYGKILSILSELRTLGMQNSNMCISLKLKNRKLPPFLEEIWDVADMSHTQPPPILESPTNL
CfEcR (CDEF)/CfUSP, GST fusion protein, sequence (O76202 whole entry, further chain, the tested form may be a part): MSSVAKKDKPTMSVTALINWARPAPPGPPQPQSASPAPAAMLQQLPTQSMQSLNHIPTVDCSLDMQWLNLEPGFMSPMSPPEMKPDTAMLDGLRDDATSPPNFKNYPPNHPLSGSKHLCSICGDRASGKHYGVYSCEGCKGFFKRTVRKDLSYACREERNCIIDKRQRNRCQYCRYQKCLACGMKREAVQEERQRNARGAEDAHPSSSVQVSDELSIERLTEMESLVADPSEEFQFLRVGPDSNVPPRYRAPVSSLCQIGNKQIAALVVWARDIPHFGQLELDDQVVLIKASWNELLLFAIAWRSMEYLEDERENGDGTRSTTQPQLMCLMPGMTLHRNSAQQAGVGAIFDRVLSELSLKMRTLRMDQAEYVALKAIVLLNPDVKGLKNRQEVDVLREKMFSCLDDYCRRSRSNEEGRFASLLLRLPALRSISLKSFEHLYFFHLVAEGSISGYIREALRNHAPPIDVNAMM

Row | SMILES | Insect Toxicity % control @ 150 ppm, MTA [3] | Insect Toxicity % control @ 150 ppm, BAW [4] | Insect Toxicity % control @ 150 ppm, CL [5] | Insect Toxicity % control @ 150 ppm, TBW [6] | Insect Toxicity % control @ 150 ppm, WFN [7] | fold induction at 33.3 µM [1] | EC50 [9] | Rel Max FI, 27-63 assay [9] | fold induction at 33 µM [2] | further results
1 | CC1(C)ON=C(c2cccc(C(F)(F)F)c2)N1NC(=O)Nc1ccccc1 [RG-120001] | 0% @ 150 | 80% @ 150 | 20% @ 150 | 0% @ 150 | 0% @ 150 |  |  |  |  | Fold Induction Average, 13B3 assay [1]: 3.3; Fold Induction Average, Z3 assay [2]: 0.3
2 | CCc1c(OC)cccc1C(=O)NN1C(c2cc(C)cc(C)c2)=NOC12CCOCC2 [RG-120008] |  |  |  |  |  |  |  |  |  | Fold Induction Average, Z3 assay [2]: 567.3; CfEcR % @ 1 uM [8]: 81% @ 1 uM
3 | CCc1ccc(C(=O)NN2C(c3ccccc3OC)=NOC2(C)C)cc1 [RG-120026] | 40% @ 150 | 100% @ 150 | 0% @ 150 | 0% @ 150 | 0% @ 150 | 0.9 | > 33 µM | 0 | 41.1 | fold induction at 33.3 µM [9]: 8.5
4 | CCc1ccc(C(=O)NN2C(c3ccc(Cl)cc3)=NOC2(C)C)cc1 [RG-120035] | 0% @ 150 | 40% @ 150 | 100% @ 150 | 0% @ 150 | 0% @ 150 | 1.2 |  |  | 9.1 | 
5 | CCC1(C)ON=C(c2cc(C)cc(C)c2)N1NC(=O)c1ccccc1 (centres unmarked) [RG-120039] |  |  |  |  |  |  |  |  |  | EC50 [8, 10]: 203 nM
6 | CCC1(C)ON=C(c2cc(C)cc(C)c2)N1NC(=O)Nc1ccccc1 (centres unmarked) [RG-120051] |  |  |  |  |  |  |  |  |  | EC50 [8, 10]: 147 nM
7 | CCc1ccc(C(=O)NN2C(c3cc(C)cc(C)c3)=NOC2(C)C)cc1 [RG-120060] | 0% @ 150 |  |  |  | 0% @ 150 | 16.8 | > 33 µM | 0.01 | 108 | Kd ([8]; GST fusion protein, read-out: CfEcR Kd): 38 nM; Insect Toxicity LC50, BAW [4]: 23 ppm; Insect Toxicity LC50, CL [5]: 47 ppm; Insect Toxicity LC50, TBW [6]: >150 ppm
8 | CCc1c(OC)cccc1C(=O)NN1C(c2cc(C)cc(C)c2)=NOC1(C)CC (centres unmarked) [RG-120069] |  |  |  |  |  | 478 | 3.31 µM | 1.11 |  | EC50 [1]: 2.95 µM; Rel Max FI, 13B3 assay [1]: 1.02; fold induction at 33.3 µM [9]: 1870; EC50 [2]: 1680 nM; Rel Max FI, Z3 assay [2]: 0.8; EC50 [8]: 14.2 nM; Insect Toxicity LC50, MTA [3]: 146 ppm; Insect Toxicity LC50, BAW [4]: 4.7 ppm; Insect Toxicity LC50, CL [5]: 4.7 ppm; Insect Toxicity LC50, TBW [6]: >150 ppm; Insect Toxicity LC50, WFN [7]: >150 ppm
9 | Cc1cccc(C(=O)NN2C(c3cc(C)cc(C)c3)=NOC2(C)C)c1 [RG-120077] | 0% @ 150 | 50% @ 150 | 100% @ 150 | 0% @ 150 | 0% @ 150 |  |  |  |  | Fold Induction Average, 13B3 assay [1]: 0.4; Fold Induction Average, Z3 assay [2]: 14.6
10 | CCc1c(OC)cccc1C(=O)NN1C(c2ccccc2)=NOC12CCCC2 [RG-120092] |  |  |  |  |  |  | 7.16 µM | 1.15 |  | fold induction at 33.3 µM [9]: 2190; Insect Toxicity LC50, MTA [3]: >150 ppm; Insect Toxicity LC50, BAW [4]: 47 ppm; Insect Toxicity LC50, CL [5]: 13 ppm; Insect Toxicity LC50, TBW [6]: 98 ppm; Insect Toxicity LC50, WFN [7]: >150 ppm
11 | COc1ccc(C2=NOC(C)(C)N2NC(=O)c2ccccc2)c(OC)c1 [RG-120096] | 74 @ 150% | 0% @ 150 | 60% @ 150 | 0% @ 150 | 55% @ 150 | 0.2 |  |  | 0.7 | EC50 [1]: > 33.3 µM; Rel Max FI, 13B3 assay [1]: 0; EC50 [2]: > 50000 nM; Rel Max FI, Z3 assay [2]: 0
12 | CCc1c(OC)cccc1C(=O)NN1C(c2ccc(Cl)cc2)=NOC1(C)C [RG-120099] | 0% @ 150 | 100% @ 150 | 40% @ 150 | 0% @ 150 | 0% @ 150 |  | ~20 µM | 0.64 | 0.2 | fold induction at 33.3 µM [9]: 1330
13 | CCOC(=O)CCC(=O)NN1C(c2cc(C)cc(C)c2)=NOC1(C)CC (centres unmarked) [RG-120126] | 0% @ 150 | 0% @ 150 | 0% @ 150 | 0% @ 150 | 79% @ 150 | 0.4 |  |  | 2.4 | EC50 [1]: > 33.3 µM; Rel Max FI, 13B3 assay [1]: 0; EC50 [2]: > 50000 nM; Rel Max FI, Z3 assay [2]: 0.04; EC50 [8, 10]: 136 nM
14 | Cc1cc(C)cc(C2=NOC3(CCCC3)N2NC(=O)c2cc3ccccc3s2)c1 [RG-120152] |  |  |  |  |  |  |  |  |  | Fold Induction Average, 13B3 assay [1]: 264.3; Fold Induction Average, Z3 assay [2]: 59.9; CfEcR % @ 1 uM [8]: 92% @ 1 uM
15 | CCC1(C)ON=C(c2cc(C)cc(C)c2)N1NC(=O)c1cc2ccccc2s1 (centres unmarked) [RG-120161] |  |  |  |  |  | 59.9 |  |  |  | EC50 [1]: 3.46 µM; Rel Max FI, 13B3 assay [1]: 0.14; EC50 [2]: 2140 nM; Rel Max FI, Z3 assay [2]: 0.08; EC50 [8]: 62.4 nM; Insect Toxicity LC50, MTA [3]: 110 ppm; Insect Toxicity LC50, BAW [4]: 87 ppm; Insect Toxicity LC50, CL [5]: 17 ppm; Insect Toxicity LC50, TBW [6]: >150 ppm; Insect Toxicity LC50, WFN [7]: >150 ppm
